Measured values published in US8883789B2, “Piperazine derivatives and their use as positive allosteric modulators of mGluR5 receptors” (Boehringer Ingelheim International GmbH, priority 2011, dated 2014).

Molecular target: T1, human recombinant mGluR5 (Homo sapiens, UniProt P41594)
T1 construct: expressed in transfected cells; hygromycin and geneticin selection
Test: positive modulation of mGluR5, calcium based FLIPR assay
Conditions: HEK 293 cell line expressing human recombinant mGluR5; Ca2+ peak height after glutamate at approximately 5% basal stimulation; nonlinear regression
Protocol: The positive modulation of mGluR5 is measured in a HEK 293 cell line expressing human recombinant mGluR5 and is detected with calcium based FLIPR assay. The cells are cultured with DMEM supplemented with 10% FCS, 2 μg/mL tetracycline, 100 μg/mL hygromycin and 500 μg/mL geneticin. The cell culture media is exchanged for tetracycline-free cell culture media 3-7 days before the assay. One day before the assay the cell culture medium is exchanged to DMEM without glutamine and phenol red and supplemented with 10% FCS, 100 μg/mL hygromycin and 500 μg/mL geneticin. On the assay day, the medium of the subconfluent cultures is removed and the cells are detached by addition of 2.5 ml EDTA (0.02%) per 175 cm2 culture flask for 1 minute. The cells are resuspend in Ringer solution (140 mM NaCl, 5 mM KCl, 2.5 mM CaCl2, 1.5 mM MgCl2, 5 mM Glucose, 10 mM Hepes; adjusted to pH 7.4 with NaOH), pooled and Ringer solution added to adjust the volume to 50 mL. The cell suspension is centrifuged for […] at 1500 U/min (425 g). The supernatant is removed and the cells washed a second time with 50 ml fresh Ringer solution and centrifuged again as before. The supernatant is again removed and the pellet resuspended in Ringer solution to 1,000,000 cells/ml (1×10^6 cells/mL). The cells are plated onto BD BioCoat Poly-D-Lysine 384 well plates (20.000 cells/well; 20 μl/well). The lid covered plates are then incubated until use at 37° C./10% CO2. For dye loading, 20 μl of Calcium-4 assay kit solution (prepared according to the manufacturer's description in Ringer solution) are added to the cells and the plates are incubated for 80 min 37° C. and then 10 min at room temperature.
Controls, Compound Dilution and Assay Execution:
Each assay plate contained wells with “high” and “low” controls:
Low controls 1% DMSO/ringer solution+basal glutamate activation (defined as 100% CTL).
High controls 10 μM CDPPB+basal glutamate activation (defined as 200% CTL).
Test compounds are dissolved and diluted in DMSO to 100-fold the desired concentrations. In a second step, the compounds are diluted in Ringer solution such that the compounds are 4-fold more concentrated than the desired final assay concentration. The final DMSO concentration was 1%.
20 μl of each compound solution are then transferred to the assay plate and the Ca2+ kinetic is measured to determine any intrinsic compound activity. After 5 min incubation in the FLIPR device, the second stimulation with 20 μl of glutamate in Ringer solution (glutamate concentration adjusted to approximately 5% basal stimulation of the maximal possible glutamate effect) is added and the kinetic Ca2+ response of the wells was measured for the modulation effect.
The peak height of the Ca release related fluorescence signal (9-66) is used for the EC50.
The EC50 of the modulation is calculated over a nonlinear regression with GraphPad Prism (Table 1).

T1 sequence (P41594 21-1212): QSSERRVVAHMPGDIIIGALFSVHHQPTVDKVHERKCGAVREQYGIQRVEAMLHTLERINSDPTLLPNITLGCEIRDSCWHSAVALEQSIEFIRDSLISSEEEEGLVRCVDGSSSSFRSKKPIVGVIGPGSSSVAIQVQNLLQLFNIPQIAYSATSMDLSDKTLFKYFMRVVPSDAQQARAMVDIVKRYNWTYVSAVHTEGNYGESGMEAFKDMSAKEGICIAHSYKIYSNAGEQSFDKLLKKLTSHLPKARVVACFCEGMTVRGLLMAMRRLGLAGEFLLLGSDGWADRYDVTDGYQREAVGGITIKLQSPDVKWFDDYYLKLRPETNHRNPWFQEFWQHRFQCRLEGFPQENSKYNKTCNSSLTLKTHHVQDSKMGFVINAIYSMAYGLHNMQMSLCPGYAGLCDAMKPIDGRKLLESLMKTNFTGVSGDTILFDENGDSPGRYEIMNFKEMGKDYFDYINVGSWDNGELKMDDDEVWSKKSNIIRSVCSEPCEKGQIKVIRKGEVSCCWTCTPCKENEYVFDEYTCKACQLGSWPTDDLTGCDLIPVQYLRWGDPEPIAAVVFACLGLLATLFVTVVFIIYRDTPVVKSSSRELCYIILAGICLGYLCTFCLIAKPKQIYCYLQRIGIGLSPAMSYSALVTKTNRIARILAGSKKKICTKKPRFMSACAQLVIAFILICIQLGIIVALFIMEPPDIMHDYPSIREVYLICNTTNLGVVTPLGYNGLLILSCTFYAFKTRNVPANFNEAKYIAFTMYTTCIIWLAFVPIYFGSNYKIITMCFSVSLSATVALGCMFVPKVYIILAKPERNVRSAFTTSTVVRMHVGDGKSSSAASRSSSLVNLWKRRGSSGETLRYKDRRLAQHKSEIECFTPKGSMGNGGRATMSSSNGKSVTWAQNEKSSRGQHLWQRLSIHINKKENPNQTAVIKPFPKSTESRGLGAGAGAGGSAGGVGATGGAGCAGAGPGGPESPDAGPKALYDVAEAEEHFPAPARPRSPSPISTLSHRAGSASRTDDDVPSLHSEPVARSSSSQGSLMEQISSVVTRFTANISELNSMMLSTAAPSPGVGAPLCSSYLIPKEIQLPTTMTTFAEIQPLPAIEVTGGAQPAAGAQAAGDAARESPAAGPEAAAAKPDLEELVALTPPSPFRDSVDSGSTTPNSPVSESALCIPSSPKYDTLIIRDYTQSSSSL

Row | Compound | EC50 [nM]
1 | CC1(C)CN(C(=O)c2cccc(N3CCCC3)n2)CCN1C(=O)c1ncn(-c2cccc(Cl)c2)n1 [Example 51] | 102
2 | CC(=O)c1cccc(C(=O)N2CCN(C(=O)c3ncn(-c4cccc(Cl)c4)n3)C(C)(C)C2)n1 [Example 52] | 63
3 | Cc1c(C(=O)N2CCN(C(=O)c3ncn(-c4cccc(Cl)c4)n3)C(C)(C)C2)oc2c(F)cccc12 [Example 53] | 77
4 | CC1(C)CN(C(=O)c2cccc(-c3cccc(C#N)c3)c2)CCN1C(=O)c1ncn(-c2cccc(Cl)c2)n1 [Example 55] | 64
5 | CCn1ccc(C(=O)N2CCN(C(=O)c3ncn(-c4cccc(Cl)c4)n3)C(C)(C)C2)n1 [Example 56] | 436
6 | CCOc1cccc(C(=O)N2CCN(C(=O)c3ncn(-c4cccc(Cl)c4)n3)C(C)(C)C2)n1 [Example 62] | 869
7 | Cc1c(C(=O)N2CCN(C(=O)c3ncn(-c4cccc(Cl)c4)n3)C(C)(C)C2)oc2c(C)cccc12 [Example 66] | 104
8 | CC1(C)CN(C(=O)c2cc3nccc(-c4ccccc4)n3n2)CCN1C(=O)c1ncn(-c2cccc(Cl)c2)n1 [Example 67] | 29
9 | Cc1ccc(C(=O)N2CCN(C(=O)c3ncn(-c4cccc(Cl)c4)n3)C(C)(C)C2)cc1Cl [Example 71] | 47
10 | CC1(C)CN(C(=O)c2cc(Cl)ccc2F)CCN1C(=O)c1ncn(-c2cccc(Cl)c2)n1 [Example 73] | 162
11 | CC1(C)CN(C(=O)c2cccc(COc3ccccc3)c2)CCN1C(=O)c1ncn(-c2cccc(Cl)c2)n1 [Example 74] | 170
12 | CC(C#N)c1cccc(C(=O)N2CCN(C(=O)c3ncn(-c4cccc(Cl)c4)n3)C(C)(C)C2)c1 (centres unmarked) [Example 75] | 419
13 | COc1ccc(C(=O)N2CCN(C(=O)c3ncn(-c4cccc(Cl)c4)n3)C(C)(C)C2)s1 [Example 76] | 233
14 | CC1(C)CN(C(=O)c2cccc(-c3ccc(C#N)cc3)c2)CCN1C(=O)c1ncn(-c2cccc(Cl)c2)n1 [Example 78] | 146
15 | Cn1ccc2cc(C(=O)N3CCN(C(=O)c4ncn(-c5cccc(Cl)c5)n4)C(C)(C)C3)ccc21 [Example 82] | 120
16 | CC1(C)CN(C(=O)c2nccc(C(F)(F)F)n2)CCN1C(=O)c1ncn(-c2cccc(Cl)c2)n1 [Example 84] | 107
17 | CC1(C)CN(C(=O)c2cc3ccccc3c(OCC3CC3)n2)CCN1C(=O)c1ncn(-c2cccc(Cl)c2)n1 [Example 85] | 109
18 | CC1(C)CN(C(=O)c2cc(C(F)(F)F)ccn2)CCN1C(=O)c1ncn(-c2cccc(Cl)c2)n1 [Example 89] | 168
19 | CCn1cc(-c2cccc(C(=O)N3CCN(C(=O)c4ncn(-c5cccc(Cl)c5)n4)C(C)(C)C3)n2)cn1 [Example 92] | 119
20 | CC1(C)CN(C(=O)c2cccc(-c3ccn[nH]3)n2)CCN1C(=O)c1ncn(-c2cccc(Cl)c2)n1 [Example 94] | 285
21 | COc1nc(C(=O)N2CCN(C(=O)c3ncn(-c4ccccc4)n3)C(C)(C)C2)cc2ccccc12 [Example 97] | 25
22 | CC1(C)CN(C(=O)c2cccc(C(F)(F)F)n2)CCN1C(=O)c1ncn(-c2ccccc2)n1 [Example 101] | 52
23 | CC1(C)CN(C(=O)c2cc3ccccc3c(OCC3CC3)n2)CCN1C(=O)c1ncn(-c2ccccc2)n1 [Example 103] | 49
24 | Cc1oc2ccccc2c1C(=O)N1CCN(C(=O)c2ncn(-c3ccccc3)n2)C(C)(C)C1 [Example 106] | 89

The next lines start with the values.

Row | EC50 [nM] | Compound
25 | 294 | Cc1ccc2oc(C(=O)N3CCN(C(=O)c4ncn(-c5cccc(Cl)c5)n4)C(C)(C)C3)c(C)c2c1 [Example 50]
26 | 201 | CC1(C)CN(C(=O)c2csc(-c3ccccc3)n2)CCN1C(=O)c1ncn(-c2cccc(Cl)c2)n1 [Example 54]
27 | 120 | Cc1ccc(Cl)cc1C(=O)N1CCN(C(=O)c2ncn(-c3cccc(Cl)c3)n2)C(C)(C)C1 [Example 57]
28 | 104 | CC1(C)CN(C(=O)c2cc3ccccn3c2)CCN1C(=O)c1ncn(-c2cccc(Cl)c2)n1 [Example 58]
29 | 1080 | CC1(C)CN(C(=O)c2cnc3[nH]ccc3c2)CCN1C(=O)c1ncn(-c2cccc(Cl)c2)n1 [Example 59]
30 | 69 | CCc1ccc(C(=O)N2CCN(C(=O)c3ncn(-c4cccc(Cl)c4)n3)C(C)(C)C2)o1 [Example 60]
31 | 96 | CC(C)c1ccc(C(=O)N2CCN(C(=O)c3ncn(-c4cccc(Cl)c4)n3)C(C)(C)C2)cc1 [Example 61]
32 | 89 | CC1(C)CN(C(=O)c2c(Cl)nc3sccn23)CCN1C(=O)c1ncn(-c2cccc(Cl)c2)n1 [Example 63]
33 | 262 | Cc1cc(C(=O)N2CCN(C(=O)c3ncn(-c4cccc(Cl)c4)n3)C(C)(C)C2)ccc1F [Example 64]
34 | 144 | Cc1cc(C(=O)N2CCN(C(=O)c3ncn(-c4cccc(Cl)c4)n3)C(C)(C)C2)ccc1Cl [Example 65]
35 | 54 | COc1cccc2c(C)c(C(=O)N3CCN(C(=O)c4ncn(-c5cccc(Cl)c5)n4)C(C)(C)C3)oc12 [Example 68]
36 | 53 | COc1cccc(-c2cccc(C(=O)N3CCN(C(=O)c4ncn(-c5cccc(Cl)c5)n4)C(C)(C)C3)c2)c1 [Example 69]
37 | 142 | Cc1cc(C)cc(C(=O)N2CCN(C(=O)c3ncn(-c4cccc(Cl)c4)n3)C(C)(C)C2)c1 [Example 70]
38 | 64 | C#CCOc1cccc(C(=O)N2CCN(C(=O)c3ncn(-c4cccc(Cl)c4)n3)C(C)(C)C2)c1 [Example 72]
39 | 181 | Cn1nc(C(=O)N2CCN(C(=O)c3ncn(-c4cccc(Cl)c4)n3)C(C)(C)C2)c2ccccc21 [Example 77]
40 | 230 | COc1ccc(C(=O)N2CCN(C(=O)c3ncn(-c4cccc(Cl)c4)n3)C(C)(C)C2)nc1OC [Example 79]

Row | EC50 [nM] | Compound
41 | 139 | Cc1cc2cc(C(=O)N3CCN(C(=O)c4ncn(-c5cccc(Cl)c5)n4)C(C)(C)C3)ccc2[nH]1 [Example 80]
42 | 155 | CCc1ccc(C(=O)N2CCN(C(=O)c3ncn(-c4cccc(Cl)c4)n3)C(C)(C)C2)cc1 [Example 81]
43 | 64 | CCc1ccc(C(=O)N2CCN(C(=O)c3ncn(-c4cccc(Cl)c4)n3)C(C)(C)C2)s1 [Example 83]
44 | 164 | CC1(C)CN(C(=O)c2cccc(-c3ccncc3)n2)CCN1C(=O)c1ncn(-c2cccc(Cl)c2)n1 [Example 86]
45 | 105 | CCCOc1nc(C(=O)N2CCN(C(=O)c3ncn(-c4cccc(Cl)c4)n3)C(C)(C)C2)cc2ccccc12 [Example 87]
46 | 375 | CC1(C)CN(C(=O)c2ccnc(C(F)(F)F)c2)CCN1C(=O)c1ncn(-c2cccc(Cl)c2)n1 [Example 88]
47 | 38 | Cc1noc(C)c1-c1cccc(C(=O)N2CCN(C(=O)c3ncn(-c4cccc(Cl)c4)n3)C(C)(C)C2)n1 [Example 90, [1-(3-Chloro-phenyl)-1H-[1,2,4]triazol-3-yl]-{4-[6-(3,5-dimethyl-isoxazol-4-yl)-pyridine-2-carbonyl]-2,2-dimethyl-piperazin-1-yl]-methanone]
48 | 113 | Cn1nccc1-c1cccc(C(=O)N2CCN(C(=O)c3ncn(-c4cccc(Cl)c4)n3)C(C)(C)C2)n1 [Example 91]
49 | 242 | Cc1nn(C)cc1-c1cccc(C(=O)N2CCN(C(=O)c3ncn(-c4cccc(Cl)c4)n3)C(C)(C)C2)n1 [Example 93]
50 | 25 | CC(C)c1cccc(C(=O)N2CCN(C(=O)c3ncn(-c4ccccc4)n3)C(C)(C)C2)c1 [Example 96, [4-(3-Isopropyl-benzoyl)-2,2-dimethyl-piperazin-1-yl]-(1-phenyl-1H-[1,2,4]triazol-3-yl)-methanone]
51 | 32 | CC1(C)CN(C(=O)c2cccc(C(F)(F)F)c2)CCN1C(=O)c1ncn(-c2ccccc2)n1 [Example 98]
52 | 28 | CCCOc1nc(C(=O)N2CCN(C(=O)c3ncn(-c4ccccc4)n3)C(C)(C)C2)cc2ccccc12 [Example 99]
53 | 29 | Cc1oc2ccc(Br)cc2c1C(=O)N1CCN(C(=O)c2ncn(-c3ccccc3)n2)C(C)(C)C1 [Example 100]
54 | 49 | Cc1oc2ccc(F)cc2c1C(=O)N1CCN(C(=O)c2ncn(-c3ccccc3)n2)C(C)(C)C1 [Example 102]
55 | 50 | CC1(C)CN(C(=O)c2cc(Cl)c3c(c2)OCCO3)CCN1C(=O)c1ncn(-c2ccccc2)n1 [Example 104]
56 | 64 | CC1(C)CN(C(=O)c2cc(Br)c(Br)o2)CCN1C(=O)c1ncn(-c2ccccc2)n1 [Example 105]
